Columns and labels:
[1] = Inhibition of UV-induced lipid peroxidation of phospholipid liposomes (antioxidant test, malonaldehyde); format: biochemical; conditions: lecithin liposomes, UV light for 4 hours
Method: Unsaturated fatty acids are present in the phospholipids of cell membranes. Their oxidation compromises membrane integrity and also leads to the generation of breakdown products that are damaging to other important cellular components such as proteins and nucleic acids. Since the skin is exposed to large doses of UV light from the sun, UV-induced peroxidation is a significant route of oxidant damage. […] The left column of Table 2 lists the compounds that were tested, while the right column lists each corresponding compound the effective concentration that inhibits oxidation by 50%. The assay was performed by irradiating a suspension of lecithin liposomes with UV light for 4 hours in the absence of or in the presence of the different compounds listed in the table. […] The rate of lipid oxidation was calculated from the increase in malonaldehyde content.

[2] = biological target: T1, human neutrophil elastase (Homo sapiens, UniProt P08246); experiment: Neutrophil elastase inhibition, chromogenic substrate assay; format: biochemical
T1 construct: purchased Athens Research and Technology, GA
T1 sequence (P08246 30-267): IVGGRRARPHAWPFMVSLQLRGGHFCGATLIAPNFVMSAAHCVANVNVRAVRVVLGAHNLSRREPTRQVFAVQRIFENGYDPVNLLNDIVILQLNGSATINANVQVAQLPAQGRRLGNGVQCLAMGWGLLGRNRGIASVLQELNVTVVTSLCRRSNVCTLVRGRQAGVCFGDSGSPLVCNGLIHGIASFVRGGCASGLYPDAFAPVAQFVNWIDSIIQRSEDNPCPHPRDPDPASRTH
Source text: In combination, these three enzymes are capable of extensively degrading all of the protein components of the extracellular matrix (ECM) including collagens I and III (the major collagen types in the skin), elastin and the various glycoprotein components (e.g., fibronectin). Elevated expression of these proteases is triggered by inflammatory stimuli such as UV light, and their activity results in ECM damage that is a major component of skin aging.
Ursolic acid is a powerful inhibitor of elastase activity. The inhibition activity of ursolic acid was tested by incubating it with a human neutrophil elastase sample (obtained from Athens Research and Technology, GA) for 10 minutes with a chromogenic substrate, given below. The change in optical density of the substrate at 405 nm was recorded one reading per minute at room temperature reaction mixtures in a 96-well plate. The reaction mixture contains 300 µg/ml methoxysuccinyl-Ala-Ala-Pro-Val-pNA (chromogenic substrate); […] human neutrophil elastase at concentrations in the range 0.55%-3.3%; 70 mM Tris-HCl (pH 8); and 200 mM NaCl.
The % inhibition is calculated relative to the no-sample control.

O=C(O[C@@H]1Cc2c(O)cc(O)cc2O[C@@H]1c1cc(O)c(O)c(O)c1)c1cc(O)c(O)c(O)c1 [Epigallocatechin gallate (EGCG), Epigallocatechin gallate]
EC50 (concentration that inhibits oxidation by 50%) [1]: 0.0003 % w/w

C[C@H]1[C@H](C)CC[C@]2(C(=O)O)CC[C@]3(C)C(=CC[C@@H]4[C@@]5(C)CC[C@H](O)C(C)(C)[C@@H]5CC[C@]43C)[C@H]12 [Ursolic Acid, Ursolic acid]
Elastase Inhibition (%) ([2]; concentration 0.0004 %): 26% | Elastase Inhibition (%) ([2]; concentration 0.0008 %): 44% | Elastase Inhibition (%) ([2]; concentration 0.0012 %): 58% | Elastase Inhibition (%) ([2]; concentration 0.002 %): 72% | Elastase Inhibition (%) ([2]; concentration 0.004 %): 81% | Elastase Inhibition (%) ([2]; concentration 0.006 %): 84% | Elastase Inhibition (%) ([2]; concentration 0.01 %): 86% | IC50 value for elastase inhibition ([2]; human neutrophil elastase, chromogenic substrate, Example 4): about 0.0008%

O=C1O[C@H]([C@@H](O)CO)C(O)=C1O [Vitamin C (Ascorbic Acid), Ascorbic Acid]
EC50 (concentration that inhibits oxidation by 50%) [1]: 0.002 % w/w

CC(=O)Oc1c(C)c(C)c2c(c1C)CCC(C)(CCC[C@H](C)CCC[C@H](C)CCCC(C)C)O2 (some centres unmarked) [Vitamin E acetate]
EC50 (concentration that inhibits oxidation by 50%) [1]: 0.022 % w/w
